What all share (test): DTP human tumour cell line panel, 48 h
Assay [1] concerns A549 NSCLC.
Assay [2] deals with CCRF-CEM leukemia.
The test system of assay [3] is COLO 205 colon.
For assay [4], the system named is K-562 leukemia.
Assay [5] has as its system KM12 colon.
Assay [6] deals with LOX IMVI melanoma.
Assay [7] has as its system SK-MEL-2 melanoma.
Assay [8] deals with SNB-19 CNS.
The test system of assay [9] is HCT-116 colon.
Assay [10] concerns HT29 colon.

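Five concentrations, 48 hours, 96-well plates. GI50 is the concentration that inhibits growth by half. TGI: total growth inhibition.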

For `CC1=C(C(=O)Nc2ccc(Cl)c(Cl)c2)C(c2ccccc2O)NC(=O)N1` (stereo unspecified), the GI50 in [1] was greater than 50 µM; in [2] it was greater than 50 µM; in assay [3], 28.3 µM; in assay [4], 26 µM; in assay [5], 16.9 µM; in assay [6] it was 33.4 µM. Besides, the GI50 in assay [7] and in assay [8] was greater than 50 µM in each case. In addition, the concentration for total growth inhibition (TGI) in assay [1], in assay [2], in assay [3], in assay [4], in [5] and in assay [6] was greater than 50 µM throughout. Besides, the TGI in assay [7] and in [8] was greater than 50 µM in each case.
Consider `O=C(Nc1cccc(NC(=O)c2cc(=O)c3ccccc3o2)n1)c1cc(=O)c2ccccc2o1`, for which the TGI in [1], in [2], in [3], in assay [9], in assay [4] and in [5] was greater than 100 µM throughout. For the same compound, the TGI in assay [6], in [7] and in assay [8] was greater than 100 µM throughout.
`CC(C)C(=O)Oc1cc2c(=O)oc3c(OC(=O)C(C)C)c(OC(=O)C(C)C)cc4c(=O)oc(c1OC(=O)C(C)C)c2c34`: the TGI in assay [1], in [2], in assay [3], in assay [9], in [10] and in assay [4] was greater than 100 µM throughout. For the same compound, the total growth inhibition concentration (TGI) in [5], in assay [6] and in [8] was greater than 100 µM in each case.
Take `CC(=O)Oc1ccc2c(c1)CC[C@@H]1C2CC[C@]2(C)C(=O)NC(=O)CC12` (stereo partly specified): the TGI in assay [1], in assay [2], in assay [3], in assay [9], in [10] and in assay [4] was greater than 100 µM throughout. Further, the TGI in assay [5] and in assay [8] was greater than 100 µM in each case.
In the case of `CC1COCC(C)N1C1=C(Cl)C(=O)c2ccccc2C1=O` (stereo unspecified), the GI50 is 17 µM in assay [1]; 13.3 µM in [3]; 1.65 µM in assay [9]; 17.5 µM in assay [10]; 2.81 µM in assay [4]; 12.4 µM in assay [5]. Moreover, the figures for the GI50 in assay [6] and in assay [8] were 1.41 µM and 14.9 µM, respectively. Moreover, the TGI in assay [1] was found to be 32.2 µM; in assay [3], 27 µM; in [9], 3.01 µM; in assay [10], 45.6 µM; in assay [4], 12 µM; in assay [5], 25.4 µM. In addition, the results for the TGI in [6] and in assay [8] were 2.77 µM and 28.1 µM, respectively.
For the compound `C[C@]12CC[C@H](OC3CCCCO3)CC1=CC[C@@H]1C2CC[C@]2(C)/C(=N/O)CCC12` (stereo partly specified), the TGI in assay [1] was 34.9 µM; in assay [9], 29.6 µM; in [10], 26.8 µM; in [4] it was greater than 100 µM; in [5], 32.4 µM; in [6], 27.5 µM. Besides, the TGI turned out to be 89.7 µM in assay [7] and 67.1 µM in assay [8].
`CC(=O)OC1CC2C(=O)C(=O)C1(C)C2(C)C` (stereo unspecified): the TGI in assay [1], in assay [2], in assay [3], in assay [9], in [10] and in assay [4] was greater than 100 µM throughout. Moreover, the TGI in assay [8] was greater than 100 µM.
In the case of `O=C(Cc1ccccc1)NN1C(=O)/C(=C\c2ccc(O)cc2)SC1=Nc1ccccc1`, the TGI in assay [1], in assay [2], in assay [3], in assay [9], in assay [10] and in assay [4] was greater than 100 µM each time. Also, the TGI in assay [5], in assay [7] and in [8] was greater than 100 µM throughout.
On to `Cc1ccc(C(C)C)cc1NC(=O)Nc1ccc([N+](=O)[O-])cc1`, for which the GI50 is 2.63 µM in assay [1]; 1.97 µM in [2]; 1.67 µM in assay [3]; 2.45 µM in [9]; 3.2 µM in assay [10]; 2.96 µM in assay [4]. For the same compound, the GI50 in assay [5] was 2.25 µM; in [6], 1.99 µM; in assay [8], 2.99 µM. Also, the TGI in assay [1] was found to be 11.1 µM; in assay [2] it was 5.53 µM; in [3] it was 3.03 µM; in assay [9], 7.13 µM; in assay [10], 10.2 µM; in [4] it was 7.74 µM. The values for the TGI in assay [5], in assay [6] and in assay [8] were 5.91 µM, 4.82 µM and 12 µM, respectively.
`C#CCN(Cc1ccc2nc(N)[nH]c(=O)c2c1)c1ccc(C(=O)NC(CCC(=O)O)C(=O)O)cc1` (stereo unspecified): the TGI in assay [1], in assay [2], in [3], in assay [9], in assay [10] and in assay [5] was greater than 100 µM each time. Besides, the TGI in [6] and in [8] was greater than 100 µM throughout.
Regarding `CSC1=NCC2(S1)c1ccccc1N(C(=O)OC(C)(C)C)C2N1CCCCC1` (stereo unspecified), the GI50 in assay [1] is greater than 100 µM; in assay [2], greater than 100 µM; in assay [9], 40.6 µM; in assay [10], greater than 100 µM; in assay [4], 73.8 µM; in [5], greater than 100 µM. Also, the GI50 in assay [7] was greater than 100 µM. Besides, the TGI in assay [1], in [2], in assay [9], in assay [10], in assay [4] and in assay [5] was greater than 100 µM in each case. For the same compound, the TGI in assay [7] is greater than 100 µM.
For `CCOC(=O)[C@H]1Nc2ccccc2C2c3ccccc3CC21` (stereo partly specified), the concentration for total growth inhibition (TGI) in [1] was greater than 100 µM; in [3] it was greater than 100 µM; in assay [9] it was greater than 100 µM; in assay [10] it was 37.2 µM; in assay [4], greater than 100 µM; in [5], greater than 100 µM. The TGI in assay [6], in assay [7] and in assay [8] was greater than 100 µM throughout.

The values are drawn from PubChem BioAssay (NCI).
